# Residues, ends and D or L forms follow the SMILES beside them.
# Target: Type-2 angiotensin II receptor (Sus scrofa)
# Assay: Displacement of [125I]Ang2 from AT2 receptor in pig uterus myometrial membrane
row,Ki [µM],Structure (SMILES)
1,> 10,CC(=O)N[C@@H](Cc1cnc[nH]1)C(=O)N1CCC[C@H]1C(=O)N[C@@H](Cc1ccccc1)C(=O)O [(S)-2-((S)-1-((S)-2-acetamido-3-(1H-imidazol-5-yl)propanoyl)pyrrolidine-2-carboxamido)-3-phenylpropanoic acid] (Ac-His-Pro-Phe-OH)
2,0.0166,"CC[C@@H](C)[C@H](NC(=O)c1cccc(Cn2ccnc2)c1)C(=O)O [(2S,3R)-2-(3-((1H-imidazol-1-yl)methyl)benzamido)-3-methylpentanoic acid]"
3,> 10,O=C(O)[C@H](Cc1ccccc1)NC(=O)[C@@H]1CCCN1C(=O)c1cccc(Cc2cnc[nH]2)c1 [(S)-2-((S)-1-(3-((1H-imidazol-5-yl)methyl)benzoyl)pyrrolidine-2-carboxamido)-3-phenylpropanoic acid]
4,> 10,"CC[C@H](C)[C@H](NC(=O)[C@@H]1CCCN1C(=O)[C@@H](N)Cc1cnc[nH]1)C(=O)O [(2S,3R)-2-((S)-1-((S)-2-amino-3-(1H-imidazol-5-yl)propanoyl)pyrrolidine-2-carboxamido)-3-methylpentanoic acid] (H-His-Pro-Ile-OH)"
5,> 10,N[C@@H](Cc1cnc[nH]1)C(=O)N1CCC[C@H]1C(=O)N[C@@H](Cc1ccccc1)C(=O)O [(S)-2-((S)-1-((S)-2-amino-3-(1H-imidazol-5-yl)propanoyl)pyrrolidine-2-carboxamido)-3-phenylpropanoic acid] (H-His-Pro-Phe-OH)
6,> 10,O=C(O)[C@H](Cc1ccccc1)NC(=O)[C@@H]1CCCN1C(=O)c1cccc(Cn2ccnc2)c1 [(S)-2-((S)-1-(3-((1H-imidazol-1-yl)methyl)benzoyl)pyrrolidine-2-carboxamido)-3-phenylpropanoic acid]
7,> 10,"CC[C@@H](C)[C@H](NC(=O)[C@@H]1CCCN1C(=O)c1cccc(Cn2ccnc2)c1)C(=O)O [(2S,3R)-2-((S)-1-(3-((1H-imidazol-1-yl)methyl)benzoyl)pyrrolidine-2-carboxamido)-3-methylpentanoic acid]"
8,0.0375,O=C(N[C@@H](Cc1ccccc1)C(=O)O)c1cccc(Cn2ccnc2)c1 [(S)-2-(3-((1H-imidazol-1-yl)methyl)benzamido)-3-phenylpropanoic acid]
9,> 10,"CC[C@@H](C)[C@H](NC(=O)[C@@H]1CCCN1C(=O)c1cccc(Cc2cnc[nH]2)c1)C(=O)O [(2S,3R)-2-((S)-1-(3-((1H-imidazol-5-yl)methyl)benzoyl)pyrrolidine-2-carboxamido)-3-methylpentanoic acid]"

# From BindingDB's records for doi:10.1021/jm0613469 (Uppsala University, 2007)
